Laboratory results: patent US4337199A, “Antibiotic β-lactam compounds, production thereof, and their use as antimicrobial agent” (Sanraku-Ocean Co., Ltd., priority 1978, dated 1982)
Values after ≈ are worked out from the molar mass of the structure shown. Where two headings read alike, the source gives them in different places.

How the values were obtained:
Experiment in all cases: minimum inhibitory concentration, agar dilution assay
Assay type in all cases: cell-based
[1] = system: Staphylococcus aureus Smith; details: read-out: minimum inhibitory concentration
Method: (§1) The antibiotic activities shown in Tables I-1 to I-8 above were determined in the following manner.
(§2) The minimum inhibitory concentrations of the compounds of formula (I-a-1) or (I-b-1) in Tables I-1 to I-7 and the known compounds in Table I-8 on the various microorganisms shown in the above tables were measured by an agar dilution assay method using a brain heart infusion agar medium "Difco" (a product of Difco Laboratories Inc.)
(§3) A sample of the test compound was dissolved in sterile distilled water and diluted to prepare a two-fold dilution series of the compound solution. In a petri plate of 9 cm diameter, 1 ml of the compound solution was added to 9 ml of molten sterile heart infusion agar medium (Difco Laboratories Inc.) at about 60° C. to prepare the compound-containing agar plate. An overnight culture of each test organism indicated in the above table which was prepared by stationary cultivation in Trypto-Soy broth (Eiken Chemi. Co., Ltd.) at 35° C. for 18 to 20 hours, was diluted with the Trypto-Soy broth to give approximately 10^8 cells/ml and the diluted inoculum was inoculated onto the compound-containing agar plates. After cultivating the plates at 35° C. for 20 hours, the growth of the organism was observed. The minimum concentration of the compound at which no growth of the microorganism was noted was determined, and defined as the minimum inhibitory concentration of the test compound.

[2] = system: Proteus mirabilis P6; details: read-out: minimum inhibitory concentration
Method: as §1, §2, §3

[3] = system: Serratia marcescens T55; details: read-out: minimum inhibitory concentration
Method: as §1, §2, §3

[4] = system: Staphylococcus aureus FDA 209P; details: FDA209P, read-out: minimum inhibitory concentration
Method: as §1, §2, §3

[5] = system: Staphylococcus aureus Russell; details: read-out: minimum inhibitory concentration
Method: as §1, §2, §3

[6] = system: Proteus rettgeri P7; details: Providencia rettgeri, read-out: minimum inhibitory concentration
Method: as §1, §2, §3

[7] = system: Escherichia coli RGN 823; details: read-out: minimum inhibitory concentration
Method: as §1, §2, §3

[8] = system: Bacillus subtilis ATCC 6633; details: read-out: minimum inhibitory concentration
Method: as §1, §2, §3

[9] = system: Pseudomonas aeruginosa NCTC10490; details: read-out: minimum inhibitory concentration
Method: as §1, §2, §3

[10] = system: Enterobacter aerogenes E19; details: Klebsiella aerogenes, read-out: minimum inhibitory concentration
Method: as §1, §2, §3

[11] = system: Staphylococcus epidermidis; details: read-out: minimum inhibitory concentration
Method: as §1, §2, §3

[12] = system: Providencia sp. P8; details: read-out: minimum inhibitory concentration
Method: as §1, §2, §3

[13] = system: Proteus sp. P22; details: read-out: minimum inhibitory concentration
Method: as §1, §2, §3

[14] = system: Serratia marcescens S18; details: read-out: minimum inhibitory concentration
Method: as §1, §2, §3

[15] = system: Sarcina lutea; details: Micrococcus luteus, read-out: minimum inhibitory concentration
Method: as §1, §2, §3

[16] = system: Proteus vulgaris GN76; details: read-out: minimum inhibitory concentration
Method: as §1, §2, §3

[17] = system: Pseudomonas aeruginosa IFO3445; details: read-out: minimum inhibitory concentration
Method: as §1, §2, §3

[18] = system: Citrobacter freundii GN 346; details: read-out: minimum inhibitory concentration
Method: as §1, §2, §3

[19] = system: Enterobacter sp. E8; details: read-out: minimum inhibitory concentration
Method: as §1, §2, §3

[20] = system: Escherichia coli K-12; details: read-out: minimum inhibitory concentration
Method: as §1, §2, §3

[21] = system: Klebsiella pneumoniae K-13; details: read-out: minimum inhibitory concentration
Method: as §1, §2, §3

[22] = system: Enterobacter cloacae 45; details: read-out: minimum inhibitory concentration
Method: as §1, §2, §3

[23] = system: Comamonas terrigena B-996; details: read-out: minimum inhibitory concentration
Method: as §1, §2, §3

[24] = system: Alcaligenes faecalis A 1; details: read-out: minimum inhibitory concentration
Method: as §1, §2, §3

[25] = T55, agar dilution, 35° C., 20 hours
[26] = P7, agar dilution, 35° C., 20 hours
[27] = NCTC10490, agar dilution, 35° C., 20 hours
[28] = SP.P8, agar dilution, 35° C., 20 hours
[29] = agar dilution, 35° C., 20 hours
[30] = S18, agar dilution, 35° C., 20 hours
[31] = GN76, agar dilution, 35° C., 20 hours
[32] = IFO3445, agar dilution, 35° C., 20 hours
[33] = P6, agar dilution, 35° C., 20 hours
[34] = RGN823, agar dilution, 35° C., 20 hours
[35] = ATCC6633, agar dilution, 35° C., 20 hours
[36] = E19, agar dilution, 35° C., 20 hours
[37] = GN346, agar dilution, 35° C., 20 hours
[38] = SP.E8, agar dilution, 35° C., 20 hours
[39] = K12, agar dilution, 35° C., 20 hours
[40] = K13, agar dilution, 35° C., 20 hours
[41] = Enterobacter cloacae, 45, agar dilution, 35° C., 20 hours
[42] = B996, agar dilution, 35° C., 20 hours
[43] = A1, agar dilution, 35° C., 20 hours

CCC1C(=O)N2C(C(=O)[O-])=C(Sc3ccccc3)CC12.[Na+] (centres unmarked)
MIC ([1]; 20 h): 0.1 µg/mL | MIC ([2]; P6, 20 h): 75 µg/mL | MIC ([3]; T55, 20 h): 150 µg/mL | MIC ([4]; 20 h): < 0.01 µg/mL | MIC ([5]; 20 h): < 0.01 µg/mL | MIC ([6]; P7, 20 h): 75 µg/mL | MIC ([7]; RGN823, 20 h): 37.5 µg/mL | MIC ([8]; ATCC6633, 20 h): 0.07 µg/mL | MIC ([9]; NCTC10490, 20 h): 4.7 µg/mL | MIC ([10]; E19, 20 h): 150 µg/mL | MIC ([11]; 20 h): < 0.01 µg/mL | MIC ([12]; SP.P8, 20 h): 18.8 µg/mL | MIC ([13]; 20 h): 75 µg/mL | MIC ([14]; S18, 20 h): 75 µg/mL | MIC ([15]; 20 h): < 0.01 µg/mL | MIC ([16]; GN76, 20 h): 150 µg/mL | MIC ([17]; IFO3445, 20 h): 18.8 µg/mL | MIC ([18]; GN346, 20 h): 150 µg/mL | MIC ([19]; SP.E8, 20 h): 75 µg/mL | MIC ([20]; K12, 20 h): 37.5 µg/mL | MIC ([21]; K13, 20 h): > 150 µg/mL | MIC ([22]; Enterobacter cloacae, 45, 20 h): 150 µg/mL | MIC ([23]; B996, 20 h): < 0.01 µg/mL | MIC ([24]; A1, 20 h): 4.7 µg/mL

CC(C)C1C(=O)N2C(C(=O)O)=C(Sc3ccccn3)CC12 (centres unmarked)
MIC [3, 25]: 50 µg/mL (≈ 164 µM) | MIC [6, 26]: 6.25 µg/mL (≈ 20.5 µM) | MIC [9, 27]: 50 µg/mL (≈ 164 µM) | MIC [12, 28]: 3.13 µg/mL (≈ 10.3 µM) | MIC [13, 29]: 12.5 µg/mL (≈ 41.1 µM) | MIC [14, 30]: 50 µg/mL (≈ 164 µM) | MIC [16, 31]: 12.5 µg/mL (≈ 41.1 µM) | MIC [17, 32]: 50 µg/mL (≈ 164 µM)

CC(O)[C@H]1C(=O)N2C(C(=O)O)=C(Sc3ccccn3)C[C@H]12 (some centres unmarked)
MIC [1, 29]: 0.39 µg/mL (≈ 1.27 µM) | MIC [2, 33]: 12.5 µg/mL (≈ 40.8 µM) | MIC [3, 25]: 100 µg/mL (≈ 326 µM) | MIC [4, 29]: 0.05 µg/mL (≈ 0.163 µM) | MIC [5, 29]: 0.39 µg/mL (≈ 1.27 µM) | MIC [6, 26]: 25 µg/mL (≈ 81.6 µM) | MIC [7, 34]: 12.5 µg/mL (≈ 40.8 µM) | MIC [8, 35]: 0.78 µg/mL (≈ 2.55 µM) | MIC [9, 27]: 25 µg/mL (≈ 81.6 µM) | MIC [10, 36]: > 100 µg/mL | MIC [11, 29]: 1.56 µg/mL (≈ 5.09 µM) | MIC [12, 28]: 3.13 µg/mL (≈ 10.2 µM) | MIC [13, 29]: 12.5 µg/mL (≈ 40.8 µM) | MIC [14, 30]: 50 µg/mL (≈ 163 µM) | MIC [15, 29]: 0.013 µg/mL (≈ 0.0424 µM) | MIC [16, 31]: 25 µg/mL (≈ 81.6 µM) | MIC [17, 32]: 12.5 µg/mL (≈ 40.8 µM) | MIC [18, 37]: 100 µg/mL (≈ 326 µM) | MIC [19, 38]: 25 µg/mL (≈ 81.6 µM) | MIC [20, 39]: 6.25 µg/mL (≈ 20.4 µM) | MIC [21, 40]: 50 µg/mL (≈ 163 µM) | MIC [22, 41]: 100 µg/mL (≈ 326 µM) | MIC [23, 42]: 0.2 µg/mL (≈ 0.653 µM) | MIC [24, 43]: 0.78 µg/mL (≈ 2.55 µM)

CC(O)C1C(=O)N2C(C(=O)O)=C(Sc3ccccn3)CC12 (centres unmarked)
MIC [1, 29]: 0.013 µg/mL (≈ 0.0424 µM) | MIC [2, 33]: 0.39 µg/mL (≈ 1.27 µM) | MIC [3, 25]: 25 µg/mL (≈ 81.6 µM) | MIC [4, 29]: < 0.007 µg/mL | MIC [5, 29]: 0.013 µg/mL (≈ 0.0424 µM) | MIC [6, 26]: 3.13 µg/mL (≈ 10.2 µM) | MIC [7, 34]: 3.13 µg/mL (≈ 10.2 µM) | MIC [8, 35]: < 0.007 µg/mL | MIC [9, 27]: 50 µg/mL (≈ 163 µM) | MIC [10, 36]: 6.25 µg/mL (≈ 20.4 µM) | MIC [11, 29]: 0.05 µg/mL (≈ 0.163 µM) | MIC [12, 28]: 0.2 µg/mL (≈ 0.653 µM) | MIC [13, 29]: 12.5 µg/mL (≈ 40.8 µM) | MIC [14, 30]: 12.5 µg/mL (≈ 40.8 µM) | MIC [15, 29]: < 0.007 µg/mL | MIC [16, 31]: 12.5 µg/mL (≈ 40.8 µM) | MIC [17, 32]: 12.5 µg/mL (≈ 40.8 µM) | MIC [18, 37]: 6.25 µg/mL (≈ 20.4 µM) | MIC [19, 38]: 0.78 µg/mL (≈ 2.55 µM) | MIC [20, 39]: 0.39 µg/mL (≈ 1.27 µM) | MIC [21, 40]: 25 µg/mL (≈ 81.6 µM) | MIC [22, 41]: 12.5 µg/mL (≈ 40.8 µM) | MIC [23, 42]: < 0.007 µg/mL | MIC [24, 43]: 6.25 µg/mL (≈ 20.4 µM)

CC(C)C1C(=O)N2C(C(=O)O)=C(SC3CCCCC3)CC12 (centres unmarked)
MIC [1, 29]: 0.05 µg/mL (≈ 0.162 µM) | MIC [2, 33]: 100 µg/mL (≈ 323 µM) | MIC [3, 25]: > 100 µg/mL | MIC [4, 29]: 0.025 µg/mL (≈ 0.0808 µM) | MIC [5, 29]: 0.025 µg/mL (≈ 0.0808 µM) | MIC [6, 26]: > 100 µg/mL | MIC [7, 34]: > 100 µg/mL | MIC [8, 35]: 0.2 µg/mL (≈ 0.646 µM) | MIC [9, 27]: 50 µg/mL (≈ 162 µM) | MIC [10, 36]: > 100 µg/mL | MIC [11, 29]: 0.05 µg/mL (≈ 0.162 µM) | MIC [12, 28]: > 100 µg/mL | MIC [13, 29]: 100 µg/mL (≈ 323 µM) | MIC [14, 30]: > 100 µg/mL | MIC [15, 29]: 0.025 µg/mL (≈ 0.0808 µM) | MIC [16, 31]: > 100 µg/mL | MIC [17, 32]: > 100 µg/mL | MIC [18, 37]: > 100 µg/mL | MIC [19, 38]: > 100 µg/mL | MIC [20, 39]: > 100 µg/mL | MIC [21, 40]: > 100 µg/mL | MIC [22, 41]: > 100 µg/mL | MIC [23, 42]: 0.007 µg/mL (≈ 0.0226 µM) | MIC [24, 43]: 6.25 µg/mL (≈ 20.2 µM)
